Experimental findings from patent US11840686B2, “Modulation of prekallikrein (PKK) expression” (Ionis Pharmaceuticals, Inc., priority 2013, dated 2023) are described below.

Strand notation (5' to 3'): a small letter for the sugar, then the base; units joined by * are phosphorothioate-linked, units joined directly phosphodiester-linked; [ ] holds rarer units or linkages, { } end groups; capitals alone tell only the bases. e = 2'-O-(2-methoxyethyl) (MOE); [5mC] = 5-methylcytosine; d = 2'-deoxy (DNA)

The subject of data set [1] is C1-INH mRNA. The data set is described as follows: C1-INH mRNA in liver of mice treated with ISIS 461756 (Example 18). Type of data set: in vivo, mouse. The conditions noted are these: liver; all groups ISIS 461756 25 mg/kg/wk; pretreatment PBS or oligonucleotide 80 mg/kg/wk sc 3 weeks. As to the method: Vascular permeability induced by ISIS 461756, an antisense oligonucleotide which targets murine C1 inhibitor mRNA, increases vascular permeability in mice and replicates the pathology of hereditary angioedema. The effect of ISIS 482584 on this model was evaluated.
One group of 8 mice was treated with 40 mg/kg ISIS 482584 administered subcutaneously twice a week for 3 weeks (weekly dose of 80 mg/kg). A second group of 8 mice was treated with 40 mg/kg of the control oligonucleotide, ISIS 141923, administered subcutaneously twice a week for 3 weeks (weekly dose of 80 mg/kg). A third group of 8 mice was treated with PBS administered subcutaneously twice a week for 3 weeks. On day 14, all the groups were treated with 12.5 mg/kg ISIS 461756 administered subcutaneously twice a week for 3 weeks (weekly dose of 25 mg/kg). A control group of mice was treated with PBS administered subcutaneously twice a week for 3 weeks but was not administered ISIS 461756.
At the end of the treatment period, all the groups were injected with 30 mg/kg of Evans Blue solution into the tail vein. The mice were sacrificed 30 min after the Evans Blue solution administration and colons, feet, ears, and intestines were harvested. The liver was also harvested for RNA analysis.
RNA was isolated from the liver for RT-PCR analysis of C1-INH and PKK mRNAs. The primer probe set for C1-INH is RTS3218 (forward sequence […], designated herein as SEQ ID NO: 2234; reverse sequence […], designated herein as SEQ ID NO: 2235; probe sequence […], designated herein as SEQ ID NO: 2236). The primer probe set for PKK is RTS3287 (forward sequence […], designated herein as SEQ ID NO: 2237; reverse sequence […], designated herein as SEQ ID NO: 2238; probe sequence […], designated herein as SEQ ID NO: 2239). The results are presented in Table 79 as percent inhibition compared to the PBS control not treated with ISIS 461756.

Data set [2] deals with thrombus formation. The data set is described as follows: FeCl3 induced mesenteric thrombosis model, platelet aggregation and fibrin formation (Example 21). As to conditions: Swiss-Webster mice; for Fibrin formation, fluorescent intensity / Platelet aggregation, fluorescent intensity: 80 mg/kg/wk. Type of data set: in vivo, mouse. How it is done:
ISIS 482584 was evaluated in the FeCl3 induced mesenteric thrombosis mouse model.
A group of 6-8 Swiss-Webster mice was treated with 40 mg/kg of ISIS 482584, administered subcutaneously twice a week for 3 weeks (weekly dose of 80 mg/kg). A control group of 6 Swiss-Webster mice was treated with PBS, administered subcutaneously twice a week for 3 weeks. Two days after the last dose of antisense oligonucleotide or PBS, mice from all groups were anesthetized with 75 mg/kg ketamine mixed with 25 mg/kg xylazine, administered by subcutaneous injection.
Rhodamine 6G dye at a dosage of 5 mg/kg was injected subcutaneously to stain platelets. Alexa-647-labeled anti-fibrinogen antibody at a dosage of 1 mg/kg was injected via tail vein injection to stain fibrin. The abdomen was opened by a middle incision. The visceral mesentery was spread on a glass coverslip and the mesenteric arterioles (70-120 μm) were located by observation under a microscope. Thrombus formation was induced by applying of cotton threads (2×0.3 mm) pre-saturated with 6% FeCl3 solution directly on the target vessel. After three minutes of exposure, the thread was removed and the color intensities of both the dyes were recorded by fluorescent microscopy (Olympus FluoView 1000 confocal laser scanning microscope) with appropriate filters for 70 min.
The results for platelet aggregation in the control and treatment groups are presented in Table 83, expressed in arbitrary units (a.u.). […] The results for fibrin formation in the control and treatment groups are presented in Table 84, also expressed in arbitrary units (a.u.).

Data set [3] is described as follows: Tolerability / clinical observation of cynomolgus monkeys (Example 8). Type of data set: in vivo, cynomolgus monkey. As to conditions: primates, Example 8. How it is done: Cynomolgus monkeys were treated with ISIS antisense oligonucleotides selected from studies described above. Antisense oligonucleotide efficacy and tolerability were evaluated. The human antisense oligonucleotides tested are cross-reactive with the rhesus genomic sequence (GENBANK Accession No. NW_001118167.1 truncated from nucleotides 2358000 to 2391000 and designated herein as SEQ ID NO: 18).
During the study period, the monkeys were observed a minimum of once daily for signs of illness or distress. Any animal experiencing more than momentary or slight pain or distress due to the treatment, injury or illness was promptly reported to the responsible veterinarian and the Study Director. Any animal in poor health or in a possible moribund condition was identified for further monitoring and possible euthanasia. […] The protocols described in the Example were approved by the Institutional Animal Care and Use Committee (IACUC).

Data set [4] in a line: Hematological parameters in cynomolgus monkeys (Example 8). The conditions noted are these: cynomolgus monkey, 40 mg/kg sc, day 87 or day 88.
Protocol: Prior to the study, the monkeys were kept in quarantine for a 30-day period, during which the animals were observed daily for general health. The monkeys were 2-4 years old and weighed between 2 and 4 kg. Ten groups of four randomly assigned male cynomolgus monkeys each were injected subcutaneously with ISIS oligonucleotide or PBS. PBS solution or ISIS oligonucleotides at a dose of 40 mg/kg were administered initially with a loading regimen consisting of four doses on the first week of the study (days 1, 3, 5, and 7), followed by a maintenance regimen consisting of once weekly administration starting on Day 14 (weeks 2 to 13). Subcutaneous injections were performed in clock-wise rotations at 4 sites on the back; one site per dose. The injection sites were delineated by tattoo, while sedated using ketamine, and were separated by a minimum of 3 cm.
To evaluate any effect of ISIS oligonucleotides in cynomolgus monkeys on hematologic parameters, blood samples of approximately 1.2 mL of blood was collected pre-dose and on day 87 or day 88 from each of the available study animals in tubes containing K2-EDTA. Samples were analyzed for red blood cell (RBC) count, white blood cells (WBC) count, platelet count, hemoglobin content and hematocrit, using an ADVIA2120i hematology analyzer (SIEMENS, USA).

“ISIS 482584: 5-10-5 MOE gapmer targeting murine PKK, GGCATATTGGTTTTTGGAAT; SEQ ID NO: 2244 (antisense eG*eG*e[5mC]*eA*eT*dA*dT*dT*dG*dG*dT*dT*dT*dT*dT*eG*eG*eA*eA*eT)”: the “Percent inhibition of C1-INH mRNA expression compared to the untreated PBS control” value in data set [1] worked out at 77%. For the same substance, the “Fibrin formation, fluorescent intensity” value in data set [2] (time 752 sec) is 54 a.u; in data set [2] (time 1018 sec) it was 7 a.u; in data set [2] (time 1284 sec), 1 a.u; in data set [2] (time 1550 sec), 10 a.u; in data set [2] (time 1815 sec), 16 a.u; in data set [2] (time 2081 sec), 15 a.u. Moreover, the “Fibrin formation, fluorescent intensity” value came to 61 a.u in data set [2] (time 2347 sec); 88 a.u in data set [2] (time 2613 sec); 141 a.u in data set [2] (time 2879 sec); 150 a.u in data set [2] (time 3144 sec); 173 a.u in data set [2] (time 3410 sec); 160 a.u in data set [2] (time 3676 sec). The “Fibrin formation, fluorescent intensity” value in data set [2] (time 3944 sec) stood at 128 a.u. Moreover, the “Platelet aggregation, fluorescent intensity” value in data set [2] (time 752 sec) worked out at 74 a.u; in data set [2] (time 1018 sec) it was 11 a.u; in data set [2] (time 1284 sec), 7 a.u; in data set [2] (time 1550 sec) it was 0 a.u; in data set [2] (time 1815 sec), 0 a.u; in data set [2] (time 2081 sec), 0 a.u. The “Platelet aggregation, fluorescent intensity” value in data set [2] (time 2347 sec) amounted to 0 a.u; in data set [2] (time 2613 sec), 38 a.u; in data set [2] (time 2879 sec), 148 a.u; in data set [2] (time 3144 sec), 129 a.u; in data set [2] (time 3410 sec), 169 a.u; in data set [2] (time 3676 sec) it was 131 a.u. In addition, the “Platelet aggregation, fluorescent intensity” value in data set [2] (time 3944 sec) is 87 a.u. The “fibrin formation” value in data set [2] (80 mg/kg/week, vs PBS) is “Fibrin formation was reduced”. For the same substance, the “platelet aggregation” value in data set [2] (80 mg/kg/week, vs PBS) is “Platelet aggregation was reduced”.
Regarding “Tes Ges mCes Aes Aes Gds Tds mCds Tds mCds Tds Tds Gds Gds mCds Aes Aes Aes mCes Ae [ISIS 546254]”, the “tolerability in primates” value in data set [3] is “tolerable in primates”. In data set [4], this substance displayed an HCT of 41%, a Hemoglobin of 12.4 g/dL, a Platelets of 436000 µL⁻¹ and an RBC of 5.3e+06 µL⁻¹. Also, the WBC in data set [4] turned out to be 11000 µL⁻¹.
